Measurements taken from patent US11339144B2 (Navitor Pharmaceuticals, Inc., priority 2017, dated 2022).

How the values were obtained:
[1] = target: HA-GST-Rheb (GTP-γ-S loaded) activating mTORC1 (Homo sapiens (Human), UniProt Q15382); test: Rheb-dependent in vitro kinase assay (Rheb-IVK; LanthaScreen or Western readout); assay type: biochemical; conditions: Rheb-dependent in vitro kinase assay; read-out: IVK IC50
Rheb = Rheb (Homo sapiens (Human), UniProt Q15382); test: Affinity Selection Mass Spectrometry (ASMS); assay type: binding; conditions: affinity (R3/R0) in Affinity Selection Mass Spectrometry assay
Protocol: Method 2 (Affinity Selection Mass Spectrometry
Protein: Rheb (19 KDa) in the following buffer: 20 mM Tris, pH 8.0, 200 mM NaCl, 2 mM DTT, 5 mM MgCl2 was prepared as under.
Human Rheb protein (I-169) was purified from BL21 (DE3) E. coli using a His-Smt-Rheb expression vector. The cell paste was lysed in lysis buffer (50 mM HEPES pH 7.5, 0.5 M NaCl, 5% Glycerol, 1% CHAPS, EDTA free protease inhibitor tablets, lysozyme to 1 mg/mL, benzonase 250U), sonicated, and purified on a HiTrap Ni Chelating Column (GE Healthcare) using the following buffer: 50 mM HEPES pH 7.5, 0.5 M NaCl, 5% Glycerol, and imidazole increasing in concentration from 5 mM to 500 mM. The His-Smt tag was cleaved using a U1p1 enzyme and dialyzed into 50 mM HEPES pH 7.5, 0.5 M NaCl, 5% Glycerol. The resultant protein was again purified on a Ni Chelating column to remove the U1p1 enzyme and His-Smt tag and then purified by size exclusion chromatography on a Sephacryl S-100 26/60 column into the following final buffer: 20 mM NaPhos pH 7.0, 100 mM NaCl, 5 mM MgCl2, 2 mM TCEP.
Concentrations: 60 μM Rheb, 180 μM GDP and 2 μM of each compound,
Ultrafiltration Filter (Sartorius, Germany) MW cutoff: 10 KDa
• (a) Sample preparation: Prepare sample for each group in 1.5 mL microcentrifuge tube according to the experimental design, total volume 550 μL. In a standard ASMS experiment there are two groups: Protein plus (P+L+) and protein minus (P−L+). • (b) Transfer 50 μL from the 550 μL to a vial as R0 sample. Incubate the rest solution for 30 min at room temperature. Then transfer the 500 μL into an ultrafiltration filter tube and centrifuge at 12×10^3 rpm for ˜10 min, leave about 50 μL solution (otherwise adjust this time). • (c) Add incubation buffer to the ultrafiltration filter tube to about 500 μL. Stir gently and centrifuge mixtures as above, leave about 50 μL solution. • (d) Repeat the step c. Transfer the remaining 50 μL upper layer solution to a new vial as R^3 sample. Sample Extraction: Add 150 μL MeCN to denature the protein completely. Centrifuge at 12×10^3 rpm for 5 min. Transfer the supernatant into LC-MS auto sampler vials for LC-MS analysis (5 uL injection).
Waters Acquity UPLC system, Waters ACQUITY UPLC BEH C18 column (2.1×50 mm, 1.7 μM); Mobile phase A: 0.1% formic acid solution, B: MeCN; 0.3 mL/min, 5 μL injection, gradient elution (Table 5).
Waters Synapt G1 Q-TOF system, positive or negative ion scan modes; Capillary voltage: 3.0 kV; Method: MSE; Mass range: m/z=100-1000; Source temperature: 120° C.; Desolvation temperature: 400° C.; Collision voltage: 35 V; Sampling Cone: 35 V; Extraction Cone: 4.0 V; Cone Gas: 50 L/h; Desolvation Gas: 800 L/h.

Rheb, sequence (Q15382 1-169 limits assumed): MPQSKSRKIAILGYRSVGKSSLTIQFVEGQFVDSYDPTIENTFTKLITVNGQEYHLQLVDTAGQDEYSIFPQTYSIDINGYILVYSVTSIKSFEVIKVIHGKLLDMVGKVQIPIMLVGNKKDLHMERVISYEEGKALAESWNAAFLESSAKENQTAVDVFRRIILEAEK
HA-GST-Rheb (GTP-γ-S loaded) activating mTORC1, sequence (Q15382 1-181): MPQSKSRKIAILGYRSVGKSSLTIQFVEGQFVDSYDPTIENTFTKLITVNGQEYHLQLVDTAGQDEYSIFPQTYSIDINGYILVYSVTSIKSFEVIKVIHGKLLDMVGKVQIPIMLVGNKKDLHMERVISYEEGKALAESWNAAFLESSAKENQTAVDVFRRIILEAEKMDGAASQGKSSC

Molecule	IC50 [1] [µM]	ASMS (R3/R0) (Rheb)
4-((6-chloro-4-(3,4-dichlorophenoxy)-1H-indol-1-yl)methyl)benzoic acid [I-146]	< 10	B (an affinity (R3/R0) between 100% and 20%)
5,6-dichloro-4-(4-chlorobenzyloxy)-1H-benzo[d]imidazole-2-carboxylic acid [I-330]	> 100	B (an affinity (R3/R0) between 100% and 20%)
CN(C)C(=O)c1ccc(Cn2c(C(=O)O)cc3cc(-c4ccccc4)c(Sc4ccc(Cl)c(Cl)c4)cc32)cc1 [I-2]	< 10	B (an affinity (R3/R0) between 100% and 20%)
CN(C)C(=O)c1ccc(Cn2c(C(=O)O)cc3c(Br)nc(Sc4ccc(Cl)c(Cl)c4)cc32)cc1 [I-3, 4-bromo-6-(3,4-dichlorophenylthio)-1-(4-(dimethylcarbamoyl)benzyl)-1H-pyrrolo[3,2-c]pyridine-2-carboxylic acid]	10 to 100	B (an affinity (R3/R0) between 100% and 20%)
CN(C)C(=O)c1ccc(Cn2c(C(=O)O)cc3c(Cl)nc(Sc4ccc(Cl)c(Cl)c4)cc32)cc1 [I-4, 4-chloro-6-(3,4-dichlorophenylthio)-1-(4-(dimethylcarbamoyl)benzyl)-1H-pyrrolo[3,2-c]pyridine-2-carboxylic acid]	10 to 100	B (an affinity (R3/R0) between 100% and 20%)
CC(c1ccc(C(=O)N(C)C)cc1)n1c(C(=O)O)cc2c(Br)cc(Sc3ccc(Cl)c(Cl)c3)cc21 (stereo not shown) [I-5, 4-bromo-6-(3,4-dichlorophenylthio)-1-(1-(4-(dimethylcarbamoyl)phenyl)ethyl)-1H-indole-2-carboxylic acid]	< 10	B (an affinity (R3/R0) between 100% and 20%)
CN(C)C(=O)c1ccc(Cn2c(C(=O)O)cc3ccc(Sc4ccc(Cl)c(Cl)c4)c(Br)c32)cc1 [I-6, 7-bromo-6-(3,4-dichlorophenylthio)-1-(4-(dimethylcarbamoyl)benzyl)-1H-indole-2-carboxylic acid]	< 10	B (an affinity (R3/R0) between 100% and 20%)
CN(C)C(=O)c1ccc(Cn2c(C(=O)O)cc3c(C#N)cc(Sc4ccc(Cl)c(Cl)c4)cc32)cc1 [I-7, 4-cyano-6-(3,4-dichlorophenylthio)-1-(4-(dimethylcarbamoyl)benzyl)-1H-indole-2-carboxylic acid]	< 10	B (an affinity (R3/R0) between 100% and 20%)
CN(C)C(=O)c1ccc(Cn2c(C(=O)O)cc3c(-c4ccccc4)cc(Sc4ccc(Cl)c(Cl)c4)cc32)cc1 [I-8, 6-(3,4-dichlorophenylthio)-1-(4-(dimethylcarbamoyl)benzyl)-4-phenyl-1H-indole-2-carboxylic acid]	< 10	A (an affinity (R3/R0)>100%)
CN(C)C(=O)c1ccc(Cn2c(C(=O)O)cc3c4ccccc4c(Sc4ccc(Cl)c(Cl)c4)cc32)cc1 [I-9, 5-(3,4-dichlorophenylthio)-3-(4-(dimethylcarbamoyl)benzyl)-3H-benzo[e]indole-2-carboxylic acid]	< 10	A (an affinity (R3/R0)>100%)
CN(C)C(=O)c1ccc(Cn2c(C(=O)O)cc3c(C4CC4)cc(Sc4ccc(Cl)c(Cl)c4)cc32)cc1 [I-10, 4-cyclopropyl-6-(3,4-dichlorophenylthio)-1-(4-(dimethylcarbamoyl)benzyl)-1H-indole-2-carboxylic acid]	< 10	A (an affinity (R3/R0)>100%)
CN(C)C(=O)c1ccc(Cn2c(C(=O)O)cc3c(Br)cc(SC4CCCCC4)cc32)cc1 [I-11]	> 3	B (an affinity (R3/R0) between 100% and 20%)
CN(C)C(=O)c1ccc(Cn2c(C(=O)O)cc3c(Br)cc(SC4CCOCC4)cc32)cc1 [I-12, 4-bromo-1-(4-(dimethylcarbamoyl)benzyl)-6-(tetrahydro-2H-pyran-4-ylthio)-1H-indole-2-carboxylic acid]	10 to 100	C (an affinity (R3/R0)<20%)
CN(C)C(=O)c1ccc(Cn2c(C#N)cc3c(Br)cc(Sc4ccc(Cl)c(Cl)c4)cc32)cc1 [I-13]	> 100	B (an affinity (R3/R0) between 100% and 20%)
CN(C)C(=O)c1ccc(Cn2c(-c3nn[nH]n3)cc3c(Br)cc(Sc4ccc(Cl)c(Cl)c4)cc32)cc1 [I-14]	> 3	B (an affinity (R3/R0) between 100% and 20%)
CN(C)C(=O)c1ccc(Cn2c(C(=O)O)cc3c(Br)cc(Sc4ccc(Oc5ccccc5)cc4)cc32)cc1 [I-15, 4-bromo-1-(4-(dimethylcarbamoyl)benzyl)-6-(4-phenoxyphenyl-thio)-1H-indole-2-carboxylic acid]	< 10	B (an affinity (R3/R0) between 100% and 20%)

More lines, main results first:

IC50 [1] [µM]	Molecule	ASMS (R3/R0) (Rheb)
10 to 100	1-(4-carboxybenzyl)-6-chloro-4-(3,4-dichlorophenoxy)-1H-indole-2-carboxylic acid [I-140]	B (an affinity (R3/R0) between 100% and 20%)
< 10	4-bromo-6-(3,4-dichlorophenylthio)-1-(4-((2-hydroxyethyl)(methyl)carbamoyl)benzyl)-1H-indole-2-carboxylic acid [I-51]	B (an affinity (R3/R0) between 100% and 20%)
< 10	7-chloro-6-(3,4-dichlorophenylthio)-4-fluoro-1H-indole-2-carboxylic acid [I-66]	B (an affinity (R3/R0) between 100% and 20%)
10 to 100	CC(=O)N[C@@H]1CCCC[C@@H]1COc1c(Cl)c(Cl)cc2[nH]c(CO)nc12 (racemic) [I-369]	C (an affinity (R3/R0)<20%)
100 to 300	N[C@@H]1CCCC[C@@H]1COc1c(Cl)c(Cl)cc2[nH]c(CO)nc12 (racemic) [I-376, (4-(((+,−)-cis-2-aminocyclohexyl)methoxy)-5,6-dichloro-1H-benzo[d]imidazol-2-yl)methanol]	C (an affinity (R3/R0)<20%)
> 100	OCc1nc2c(OC[C@H]3CNCC[C@@H]3O)c(Cl)c(Cl)cc2[nH]1 (racemic) [I-385]	C (an affinity (R3/R0)<20%)
> 100	OCc1nc2c(OC[C@H]3CNCC[C@H]3O)c(Cl)c(Cl)cc2[nH]1 (racemic) [I-386]	C (an affinity (R3/R0)<20%)
10 to 100	OCc1nc2c(OC[C@H]3CCCC[C@H]3O)c(Cl)c(Cl)cc2[nH]1 (racemic) [I-394, (+,−)-cis-2-((5,6-dichloro-2-(hydroxymethyl)-1H-benzo[d]imidazol-4-yloxy)methyl)cyclohexanol]	B (an affinity (R3/R0) between 100% and 20%)
10 to 100	OCc1nc2c(OC[C@H]3CCCC[C@@H]3O)c(Cl)c(Cl)cc2[nH]1 (single isomer, unassigned) [I-388]	B (an affinity (R3/R0) between 100% and 20%)
> 100	OCc1nc2c(OC[C@H]3CCCC[C@H]3O)c(Cl)c(Cl)cc2[nH]1 (single isomer, unassigned) [I-389]	C (an affinity (R3/R0)<20%)
< 10	CN(C)C(=O)c1ccc(Cn2c(C(=O)O)cc3c(SCCc4ccc(Cl)c(Cl)c4)cc(SCCc4ccc(Cl)c(Cl)c4)cc32)cc1 [I-16, 4,6-bis(3,4-dichlorophenethylthio)-1-(4-(dimethylcarbamoyl)benzyl)-1H-indole-2-carboxylic acid]	B (an affinity (R3/R0) between 100% and 20%)
< 10	CN(C)C(=O)c1ccc(Cn2c(C(=O)O)cc3ccc(Sc4ccc(Oc5ccccc5)cc4)cc32)cc1 [I-17, 1-(4-(dimethylcarbamoyl)benzyl)-6-(4-phenoxyphenylthio)-1H-indole-2-carboxylic acid]	B (an affinity (R3/R0) between 100% and 20%)
> 100	CN(C)C(=O)c1ccc(Cn2c(C(=O)O)cc3c(Br)cc(SCc4ccc(Cl)c(Cl)c4)cc32)cc1 [I-18]	B (an affinity (R3/R0) between 100% and 20%)
